{"source": "ChEMBL document CHEMBL5137025", "about": "“Tuberculosis Drug Discovery: Challenges and New Horizons” (J Med Chem, 2022)", "key": {"[1]": {"test_system": "HepG2", "assay": "Cytotoxicity against human HepG2 cells", "assay_type": "functional"}, "[2]": {"test_system": "Mycobacterium tuberculosis", "assay": "microbe, parasite or virus in culture", "details": "H37Rv", "description": "Antibacterial activity against Mycobacterium tuberculosis H37Rv assessed as inhibition of bacterial growth"}, "[3]": {"test_system": "Mycobacterium tuberculosis", "assay": "Antibacterial activity against Mycobacterium tuberculosis in acute Mtb infection mouse model assessed as reduction in log10 CFU at 25 mg/kg treated for 3 weeks", "assay_type": "functional"}, "[4]": {"assay": "Inhibition of bacterial DdlA", "parameters": "species or system Bacteria"}, "[5]": {"test_system": "Mycobacterium tuberculosis", "assay": "Antibacterial activity against Mycobacterium tuberculosis infected in macrophage assessed as inhibition of bacterial growth in presence of Ethionamide", "assay_type": "functional, organism-based"}, "[6]": {"test_system": "Mycobacterium tuberculosis", "assay": "Antibacterial activity against Mycobacterium tuberculosis Beijing strain in acute Mtb infection BALB/c mouse model assessed as reduction in log10 CFU in lungs at 50 mg/kg, po for 3 weeks", "assay_type": "functional"}, "[7]": {"assay": "Half life in mouse", "assay_type": "ADME, organism-based", "details": "in vivo"}, "[8]": {"test_system": "Mycobacterium tuberculosis", "assay_type": "functional", "details": "H37Rv"}, "[9]": {"assay": "Cytotoxicity against African green monkey Vero cells by MTT assay", "assay_type": "toxicity, cell-based", "details": "chlorocebus sabaeus"}, "[10]": {"test_system": "Mycobacterium tuberculosis", "assay_type": "functional, H37Rv", "details": "dose 25 mg/kg; route ig; time 3 weeks"}, "[11]": {"assay": "Inhibition of Mycobacterium tuberculosis ASADH expressed in Escherichia coli BL21"}, "[12]": {"test_system": "HepG2", "assay": "Cytotoxicity against human HepG2 cells by MTT assay", "assay_type": "functional"}, "[13]": {"test_system": "Mycobacterium tuberculosis", "assay_type": "functional, H37Rv", "details": "dose 100 mg/kg; route po; time 10 day"}, "[14]": {"test_system": "HepG2", "assay": "Cytotoxicity against human HepG2 cells assessed as reduction in cell viability treated for 3 days by resazurin reduction microplate assay", "assay_type": "functional", "details": "HepG2, 72 h, time 3 day"}, "[15]": {"test_system": "Mycobacterium tuberculosis", "assay_type": "functional", "details": "H37Rv, time 6 day"}, "[16]": {"test_system": "Mycobacterium tuberculosis", "assay_type": "functional, H37Rv", "details": "dose 10 mg/kg; route po; time 2 weeks"}, "[17]": {"assay": "Solubility of the compound in PBS at pH 7.4 incubated for 24 hrs by LC-MS analysis", "assay_type": "physicochemical"}, "[18]": {"test_system": "Mycobacterium tuberculosis", "assay": "Antibacterial activity against Mycobacterium tuberculosis infected in macrophage assessed as inhibition of bacterial growth", "assay_type": "functional, organism-based"}, "[19]": {"assay": "Metabolic stability in CD-1 mouse liver microsomes assessed as half life measured for 5 to 40 mins by LC-MS/MS analysis", "assay_type": "ADME, Microsome", "details": "time 5-40 min"}, "[20]": {"test_system": "Mycobacterium tuberculosis", "assay_type": "functional", "details": "H37Rv, 336 h, time 14 day"}, "[21]": {"test_system": "Mycobacterium tuberculosis", "assay_type": "functional, H37Rv", "details": "dose 400 mg/kg; route sc; time 3 weeks"}, "[22]": {"test_system": "Mycobacterium tuberculosis", "assay": "Antibacterial activity against Mycobacterium tuberculosis in acute Mtb infection 129sv dehydropeptidase-1 KO mouse model assessed as reduction in log10 CFU administered twice daily for 6 days in presence of clavulanate", "assay_type": "functional", "details": "time 6 day"}, "[23]": {"test_system": "Mycobacterium tuberculosis", "assay_type": "functional", "details": "H37Rv, time 6 day", "remark": "listed apart in the source"}, "[24]": {"test_system": "Mycobacterium tuberculosis", "assay_type": "functional, H37Rv", "details": "dose 18 mg/kg; time 8 day"}, "[25]": {"test_system": "Mycobacterium tuberculosis", "assay": "Antibacterial activity against Mycobacterium tuberculosis in acute Mtb infection C57BL/6J mouse model assessed as reduction in log10 CFU in lungs at 350 mg/kg, po for 8 days", "assay_type": "functional", "details": "time 8 day"}, "[26]": {"assay": "Solubility of the compound", "assay_type": "physicochemical"}, "[27]": {"test_system": "Mycobacterium tuberculosis", "assay_type": "functional, H37Rv", "details": "dose 200 mg/kg; route po; time 10 day"}, "[28]": {"test_system": "Mycobacterium tuberculosis", "assay_type": "functional, THP-1", "details": "H37Rv"}, "[29]": {"test_system": "Mycobacterium tuberculosis", "assay": "Antibacterial activity against Mycobacterium tuberculosis in acute Mtb infection 129sv dehydropeptidase-1 KO mouse model assessed as reduction in log10 CFU administered subcutaneously twice daily for 6 days", "assay_type": "functional", "details": "route sc; time 6 day"}, "[30]": {"test_system": "Mycobacterium tuberculosis", "assay_type": "functional, THP-1", "details": "H37Rv", "remark": "listed apart in the source"}, "[31]": {"test_system": "Mycobacterium tuberculosis", "assay": "Antibacterial activity against Mycobacterium tuberculosis in acute Mtb infection BALB/c mouse model assessed as reduction in log10 CFU treated for 6 days", "assay_type": "functional", "details": "time 6 day"}, "[32]": {"assay": "physchem", "details": "sodium phosphate buffer, pH 7.4"}, "[33]": {"assay": "Half life in Swiss-Webster mouse at 200 mg/kg, po via gavage measured after 4 hrs", "assay_type": "ADME, organism-based", "details": "in vivo"}, "[34]": {"test_system": "Mycobacterium tuberculosis", "assay_type": "functional, H37Rv", "details": "dose 200 mg/kg; route po; time 8 weeks"}, "[35]": {"test_system": "Mycobacterium tuberculosis", "assay_type": "functional, H37Rv", "details": "dose 200 mg/kg; route po; time 2 weeks"}, "[36]": {"assay": "in vitro", "details": "human, dermal fibroblasts", "description": "Cytotoxicity against human dermal fibroblasts assessed as cell growth inhibition treated for 48 hrs by resazurin dye based assay"}}, "note": "pEC50, pIC50: −log10 of the molar value."}
{"smiles": "OC1(c2ccc(OC(F)F)cc2)C[N+](c2ccccc2)=C2CCCCN21.[Br-]", "note": "(centres undefined)", "values": [{"measurement": "CC50", "setting": "[1]", "result": 263, "unit": "µM"}, {"measurement": "MIC", "setting": "[2]", "result": 1.1, "unit": "µM"}, {"measurement": "Activity", "setting": "[3]", "result": 1.2, "unit": "log10CFU"}, {"measurement": "pIC50", "setting": "[4]", "result": 5.21}]}
{"smiles": "O=C(CCC(F)(F)F)N1CCC2(CC1)CC(c1ccccc1)=NO2", "values": [{"measurement": "pEC50", "setting": "[5]", "result": 7.70}, {"measurement": "Activity", "setting": "[6]", "result": 1, "unit": "log10CFU"}, {"measurement": "half-life", "setting": "[7]", "result": 19, "unit": "min"}, {"measurement": "MIC", "setting": "[8]", "result": 0.3, "unit": "µM"}]}
{"smiles": "O=C(Nc1nnc(C2CCCO2)o1)c1ccc([N+](=O)[O-])o1", "note": "(centres undefined)", "values": [{"measurement": "CC50", "setting": "[9]", "result": "> 218", "unit": "µM"}, {"measurement": "Activity", "setting": "[10]", "result": 1.7, "unit": "log10CFU"}, {"measurement": "pIC50", "setting": "[11]", "result": 5.70}, {"measurement": "CC50", "setting": "[12]", "result": "> 218", "unit": "µM"}, {"measurement": "MIC", "setting": "[2]", "result": 1.7, "unit": "µM"}]}
{"smiles": "O=C(/C=C/c1nccs1)N1CCN(Cc2ccc3c(c2)OCO3)CC1", "values": [{"measurement": "Activity", "setting": "[13]", "result": 0.9, "unit": "log10CFU"}, {"measurement": "CC50", "setting": "[14]", "result": 210, "unit": "µM"}, {"measurement": "MIC90", "setting": "[15]", "result": 0.84, "unit": "µM"}]}
{"smiles": "O=C(NCCC(F)(F)F)c1ccc(-c2noc(C3CC3)n2)cc1", "values": [{"measurement": "Activity", "setting": "[16]", "result": ">2", "unit": "log10CFU"}, {"measurement": "solubility at 24 h", "setting": "[17]", "result": 30, "unit": "µM"}, {"measurement": "pEC50", "setting": "[18]", "result": 7.14}, {"measurement": "half-life", "setting": "[19]", "result": 19, "unit": "min"}]}
{"smiles": "C[C@@H](O)[C@H]1C(=O)N2C(C(=O)O)=C(S[C@@H]3CN[C@H](C(=O)N(C)C)C3)[C@H](C)[C@H]12", "note": "[MEROPENEM]", "values": [{"measurement": "MIC90", "setting": "[20]", "result": 10, "unit": "µM"}, {"measurement": "Activity", "setting": "[21]", "result": "<2", "unit": "log10CFU"}, {"measurement": "Activity", "setting": "[22]", "result": 1.7, "unit": "log10CFU"}, {"measurement": "half-life", "setting": "[7]", "result": 27.6, "unit": "min"}]}
{"smiles": "CCCCS(=O)(=O)Nc1ccc2[nH]ncc2c1", "values": [{"measurement": "MIC", "setting": "[23]", "result": 1.2, "unit": "µM"}, {"measurement": "Activity", "setting": "[24]", "result": 2, "unit": "log10CFU"}]}
{"smiles": "O=S1(=O)C[C@H](O)[C@@H](N2CCN(c3ccc(F)cc3Cl)CC2)C1", "values": [{"measurement": "Activity", "setting": "[25]", "result": 1.4, "unit": "log10CFU"}, {"measurement": "CC50", "setting": "[1]", "result": "> 100", "unit": "µM"}, {"measurement": "MIC", "setting": "[2]", "result": 2.3, "unit": "µM"}, {"measurement": "solubility", "setting": "[26]", "result": 434, "unit": "µM"}]}
{"smiles": "O=C(/C=C/c1cccs1)N1CCN(Cc2ccc3c(c2)OCO3)CC1", "values": [{"measurement": "Activity", "setting": "[27]", "result": 0.4, "unit": "log10CFU"}, {"measurement": "CC50", "setting": "[14]", "result": 140, "unit": "µM"}, {"measurement": "MIC90", "setting": "[15]", "result": 0.14, "unit": "µM"}]}
{"smiles": "CO[C@H]1CCC[C@H]2C1=C(C(=O)[O-])N1C(=O)[C@H]([C@@H](C)O)[C@@H]21.[Na+]", "note": "[SANFETRINEM SODIUM]", "values": [{"measurement": "MIC", "setting": "[28]", "result": 5, "unit": "µM"}, {"measurement": "Activity", "setting": "[29]", "result": 1.7, "unit": "log10CFU"}, {"measurement": "MIC", "setting": "[2]", "result": 5, "unit": "µM"}, {"measurement": "MIC90", "setting": "[30]", "result": 5.6, "unit": "µM"}, {"measurement": "Activity", "setting": "[31]", "result": 1.7, "unit": "log10CFU"}]}
{"smiles": "CNC(=O)c1c(-c2ccc(O)cc2)oc2ccc(O)c(CN3CCCCC3)c12", "values": [{"measurement": "solubility kinetic at 24 h", "setting": "[32]", "result": 74, "unit": "µM"}, {"measurement": "half-life", "setting": "[33]", "result": 60, "unit": "min"}, {"measurement": "Activity", "setting": "[34]", "result": 1.9, "unit": "log10CFU"}, {"measurement": "Activity", "setting": "[35]", "result": 0.9, "unit": "log10CFU"}, {"measurement": "MIC90", "setting": "[2]", "result": 0.13, "unit": "µM"}, {"measurement": "CC50 at 48 h", "setting": "[36]", "result": "> 100", "unit": "µM"}]}
